Reference: patent US7538220B2, “Intermediates in the preparation of homocamptothecin analogs” (University of Pittsburgh - of the Commonwealth System of …, priority 1999, dated 2009)

Columns and labels:
[1] = Lactone ring stability in human plasma by HPLC; assay type: in vitro ADME; conditions: 3 hours, 37° C., pH 7.5, 1 μM
Method: (§1) FIG. 13 depicts the improved stabilities of four novel homosilatecans of the current invention following incubation in PBS containing 30 mg/ml human serum albumin at 37° C. […] All the experiments of FIG. 14 were conducted in human plasma at 37° C. Plasma samples were continuously aerated by a stream of blood gas resulting in the maintenance of pH at values of 7.5±0.1.
(§2) HPLC solvents were from Fisher Scientific.
To characterize the stabilities of the novel silatecans of interest in human plasma, frozen plasma was incubated at 37° C. in order to thaw. Blood gas was bubbled through the plasma to adjust the pH close to 7.5. […] The samples were then allowed to incubate further at 37° C. […] Tubes were vortexed for 10 sec and centrifuged in a tabletop microcentrifuge at 8000 rpm for 45 sec. […] The sample was analyzed by HPLC as soon as possible. The data analysis was as described for drug in PBS only samples as described above. Blood gas was continuously bubbled through the plasma samples to pH at 7.5+/−[…].

[2] = Lactone ring stability in PBS containing human serum albumin by HPLC; assay type: in vitro ADME; conditions: PBS with 30 mg/ml HSA, 37° C., 1 μM
Method: as §1, §2
To study the stabilities of homosilatecans in PBS containing human serum albumin (HSA), the HSA was dissolved in PBS, pH 7.4 at the concentration of 30 mg/ml and incubated at 37° C. The pH was measured and adjusted to 7.4+/−0.5 using 0.1 M KOH or 0.1 M HCl. Incubation continued until pH stabilized within the target range. An aliquot of PBS/HSA was removed and placed in an autosampler vial and maintained at 37° C. for 10 min. An aliquot of the drug in DMSO was added to the sample resulting in a final drug concentration of 1 μM. The vial was quickly added to the HPLC autosampler maintained at 37° C. and aliquots were injected and analyzed by HPLC at different time points. The data analysis was as described above for the drug in PBS only samples.

[3] = Lactone ring stability in mouse blood by HPLC; conditions: for Ratio of Lactone Level Mouse/Human / underestimation of human blood lactone level by mouse blood: blood; for Ratio of Lactone Level Mouse/Human: 3 hours of incubation; for Percent Lactone in Mouse Blood after 3 Hours of Incubation: pH 7.4, 37° C.; for underestimation of human blood lactone level by mouse blood: 3 hours
Method: The hydrolysis kinetics of camptothecins in the presence of different blood components were determined by a quantitative C18 reversed-phase high-performance liquid chromatography (HPLC) assay modified from methodologies described previously in the literature cited above. The preparation of whole blood and fractionated blood samples was carried out as described previously. Crystallized HSA of high purity (>97%) from Sigma Chemical (St. Louis, Mo.) was used. HSA stock solutions were prepared in PBS buffer with a final pH of 7.40±0.05. HSA concentrations were determined by UV absorbance at 278 nm using an extinction coefficient of 39,800 M^−1 cm^−1 (Porter, 1992). All other agents were reagent grade and were used without further purification. High purity water provided by a Milli-Q UV PLUS purification system (Bedford, Mass.) was utilized in all experiments. HPLC solvents were from Fisher Scientific. Human plasma and red blood cells were obtained from Central Kentucky Blood Center. […] Blood from mice was collected in heparinized tubes and stored at 5-10° C. until use.
HPLC assays were performed either on a Waters Alliance 2690 HPLC system equipped with a temperature-controlled autosampler and Waters 474 scanning fluorescence detector. A second HPLC system was composed of a Waters HPLC system composed of 501 HPLC pumps, 717 Plus temperature-controlled autosampler and 470 scanning fluorescence detector. The HPLC assay procedures used for the homosilatecans are summarized below. Solvent A consisted of acetonitrile and Solvent B was 2% triethylammonium acetate, pH 5.5, with a flow rate of 1 ml/min. For DB-38 an isocratic elution was used: 33% Solvent A; 67% Solvent B; λex:345 nm and λem:518 nm. For DB-81 an isocratic elution was used: 56% Solvent A; 44% Solvent B; and λex:375 nm and λem:444 nm. For DB-90 an isocratic elution was used: 41% Solvent A; 59% Solvent B; λex:412 nm and λem:526 nm. For DB-91 an isocratic elution of 42% Solvent A, 58% Solvent B, and λex:392 nm and λem:562 nm.
To determine drug stability in whole blood, whole blood was incubated at 37° C. for 30 min and pH determined. Blood pH was adjusted to 7.4+/−0.5 using either 0.1 M KOH or 0.1 M HCl. Blood samples were incubated at 37° C. for 30 min and pH remeasured to ensure that it is within the range before an individual assay was started. Aliquots of blood (2 ml each) were removed and placed in three disposable glass test tubes and the tubes were incubated at 37° C. […] Incubation at 37° C. was continued and 150 μl aliquots were removed at different time points and added to 600 μl of cold methanol (−20° C.) in an eppendorf tube. The tube was then vortexed for 10 sec and centrifuged in a table top microcentrifuge at 8000 rpm for 45 sec. The Supernatant was removed and placed in an autosampler vial and the vial quickly added to the autosampler maintained at 4° C. The sample was analyzed immediately on the HPLC set-up. The data analysis was as described for the drug in PBS only samples.

[4] = Fluorescence anisotropy titration, equilibrium binding to DMPG small unilamellar vesicles; assay type: physicochemical; conditions: negatively charged DMPG vesicles, PBS pH 7.4, 37° C.; K values subject to 10% uncertainty
Method: (§3) As a consequence of the brilliant fluorescence emissions from the newly synthesized homosilatecans (a summary of the spectral parameters can be found in Table 1), the lipid bilayer adsorption isotherms summarized in FIG. 4 were relatively free from any background signal. The method of fluorescence anisotropy titration was used to construct the adsorption isotherms. The experiments were conducted at drug concentrations of 1 μM in PBS buffer (37° C.). […] Because of the potential of the lactone ring of the homosilatecans and camptothecins to hydrolyze in PBS, anisotropy values at each lipid concentration were determined immediately (approx. 1 min.) following the addition of the lactone form of each agent to the liposome suspension as to minimize any possibility of conversion to the carboxylate form. Using drug concentrations of 1 μM and long pass filters to isolate emitted light from background signal (that is, scattered exciting light and extraneous fluorescence signal resulting from the possible presence of impurities), signal levels from drugs dissolved in PBS buffer were typically 99.97% in the absence of membrane and greater than 98% in the presence of membrane. Adsorption isotherms were used to determine overall association constants for the homosilatecan, silatecan, and camptothecin drugs. Overall association constants are defined as: K=[AB]/[AF][L] where [AB] represents the concentration of bound drug, [AF] represents the concentration of free drug, and [L] represents the total lipid concentration in the vesicle suspension. This equation is valid when the concentration of free lipid is approximately equal to the concentration of total lipid (that is, the concentration of free lipid is in significant excess over the concentration of bound drug). Provided this condition is satisfied, K may be determined from the inverse of the slope of a double reciprocal plot. In such a double reciprocal plot, 1/fraction of the total drug bound is plotted vs. 1/lipid concentration, with a y-intercept value of 1 (for a system displaying binding site homogeneity). Such double-reciprocal plots for the associations of the new homosilatecans analogs (both lactone and carboxylate forms) with DMPC and DMPG small unilamellar vesicle (SUV) preparations were linear with good correlation coefficients.
(§4) The studies summarized in Table 2 examine the structural basis of homosilatecan associations for lipid bilayers. Two types of membranes were included in these studies which were conducted under near physiological conditions of pH and temperature; these membranes include fluid-phase and electroneutral L-α-dimyristoylphosphatidyl-choline (DMPC); and fluid-phase and negatively-charged L-α-dimyristoylphosphatidylglycerol (DMPG). DMPC and DMPG have identical chain length but the charges on their head groups differ.
(§5) In the studies of Table 2, binding isotherms were constructed using the method of fluorescence anisotropy titration as discussed above, and K values were determined from the slopes of the double-reciprocal plots. The K values are subject to 10% uncertainty. One of the most striking features of the data contained in Table 2 is the strong modulation which can be achieved through the creation of A,B,E-ring modified camptothecins (for example, the homosilatecans known as DB-38, DB-90, and DB-91) or B,E-ring modified camptothecins (for example, the homosilatecan known as DB-81). Homosilatecans containing either a sole substitution at the 7 position or dual substitution at the 7 and 10 positions have been created and found to display very high lipophilicities. Included in Table 2 are camptothecin compounds (topotecan and camptothecin). For DB-81, the lipophilicity for DMPC membranes relative to corresponding value for topotecan increases over 1,400-fold. Data for these agents were included to show the highly lipophilic nature of the new homocamptothecins relative to compounds such as topotecan and camptothecin. […]

[5] = system: MDA-MB-435 tumorigenic metastatic human breast cancer cells; experiment: Cytotoxicity, sulphorrhodamine B (SRB) assay; assay type: cell-based; conditions: MDA-MB-435, 72 h, read-out: IC50 (w/o HSA)
Method: Cytotoxicity measurements were conducted using MDA-MB-435 tumorigenic human breast cancer cells. The cells were exposed to a range of drug concentrations for 72 hr exposure periods and then viability was assessed using a sulphorrhodamine B (SRB) assay. The SRB measures the total protein levels in the living cells. Proteins from dead cells are lysed and removed in the washing step before TCA fixation. However, it is possible that cells in the early stage of death still have their membrane integrity and therefore retain the protein contents inside. As a result, the optical density at 490 nm can sometimes be overestimated and the cytotoxicity underestimated. […] The SRB assay is now a well regarded assay and was recently approved by NCl as a standard assay for anticancer drug screening. […] Each IC50 value represents the average of three separate trials with each dosage level studied in triplicate.

[6] = Fluorescence anisotropy titration, equilibrium binding to DMPC small unilamellar vesicles; assay type: physicochemical; conditions: for KDMPC overall association constant: electroneutral DMPC vesicles, PBS pH 7.4, 37° C., K values subject to 10% uncertainty
Method: as §3, §4, §5

[7] = Lactone ring stability in whole human blood by HPLC; conditions: for Percent Lactone in Human Blood after 3 Hours of Incubation: pH 7.4, 37° C. (Table 4); for % Lactone: whole human blood, 1 μM
Method: All experiments were conducted at pH 7.4 and 37° C.
as §2

Row | Structure (SMILES) | % Lactone [1] [%] | % Lactone ([2]; 3 hours) [%] | % Lactone ([2]; 24 hours) [%] | Ratio of Lactone Level Mouse/Human [3] | Percent Lactone in Mouse Blood after 3 Hours of Incubation [3] [%] | KDMPG overall association constant [4] [M⁻¹] | IC50 [5] [nM] | KDMPC overall association constant [6] [M⁻¹] | Percent Lactone in Human Blood after 3 Hours of Incubation [7] [%] | % Lactone ([7]; 3 hours incubation, pH 7.4, 37° C.) [%] | underestimation of human blood lactone level by mouse blood [3] [%] | increase of lipophilicity for DMPC membranes relative to topotecan ([6]; 1 μM, pH 7.4) | % Lactone ([7]; 24 hours incubation, 37° C.) [%] | decrease in DMPC binding upon ring opening (lactone vs carboxylate) [6] [fold]
1 | CCC1(O)CC(=O)OCc2c1cc1n(c2=O)Cc2c-1nc1ccc(N)cc1c2[Si](C)(C)C (racemic) [DB-38, 5-Ethyl-1,4,5,13-tetrahydro-5-hydroxy-10-amino-12-trimethylsilyl-3H,15H-oxepino[3′,4′:6,7]indolizino[1,2-b]quinoline-3,15-dione] | 40.3 ± 2.1 | 81.4 ± 0.3 | 34.1 ± 2.2 | 1.3 | 72 | 800 | 20 | 1400 | 56 | 56.4 ± 0.6 |  |  |  | 
2 | CCC1(O)CC(=O)OCc2c1cc1n(c2=O)Cc2c-1nc1ccccc1c2[Si](C)(C)C(C)(C)C (racemic) [DB-81, 5-Ethyl-1,4,5,13-tetrahydro-5-hydroxy-12-tert-butyldimethylsilyl-3H,15H-oxepino[3′,4′:6,7]indolizino[1,2-b]quinoline-3,15-dione] | 85.0 ± 4.3 | 88.1 ± 0.2 | 42.5 ± 1.6 | 0.9 | 80 | 18500 | 77 ± 13 | 14400 | 87 |  | 6 | over 1,400 fold | 27.0 ± 2.3 | 
3 | CCC1(O)CC(=O)OCc2c1cc1n(c2=O)Cc2c-1nc1ccc(N)cc1c2[Si](C)(C)C(C)(C)C (racemic) [DB-90, 5-Ethyl-1,4,5,13-tetrahydro-5-hydroxy-10-amino-12-tert-butyldimethylsilyl-3H,15H-oxepino[3′,4′:6,7]indolizino[1,2-b]quinoline-3,15-dione] | 71.1 ± 3.5 | 86.8 ± 0.2 | 42.0 ± 2.7 | 0.7 | 61 | 9300 | 73 ± 8 | 8600 | 85 |  |  |  | 24.6 ± 1.3 | 10
4 | CCC1(O)CC(=O)OCc2c1cc1n(c2=O)Cc2c-1nc1ccc(O)cc1c2[Si](C)(C)C(C)(C)C (racemic) [DB-91, 5-Ethyl-1,4,5,13-tetrahydro-5-hydroxy-10-hydroxy-12-tert-butyldimethylsilyl-3H,15H-oxepino[3′,4′:6,7]indolizino[1,2-b]quinoline-3,15-dione] | 61.5 ± 3.9 | 82.9 ± 0.3 | 33.2 ± 3.0 | 0.8 | 70 | 4300 | 115 ± 5 |  | 85 |  | 20 |  | 37.1 ± 1.8 | 10
